Source: ChEMBL document CHEMBL1201862, “PubChem BioAssay data set” (2004)
Where “and” joins values, the source holds several entries; their conditions need not be identical. Equal entries are not always repeated. Calls of active or inactive are those of the source.

Assays:
Troponin, cardiac muscle = Troponin, cardiac muscle (Homo sapiens, UniProt P19429+P45379+P63316); assay: Fluorescence-based biochemical high throughput dose response assay for activators of the calcium sensitivity of cardiac Regulated Thin Filaments (RTF). [Related pubchem assays (depositor defined):AID493008, AID493018, AID504382, AID504383]; format: protein-complex assay
X-box-binding protein 1 = biological target: T1, X-box-binding protein 1 (Homo sapiens, UniProt P17861); format: functional, Cricetulus griseus;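 note: confirmatory dose-response counter-screen serving a CHOP assay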
T1 sequence (P17861 whole entry): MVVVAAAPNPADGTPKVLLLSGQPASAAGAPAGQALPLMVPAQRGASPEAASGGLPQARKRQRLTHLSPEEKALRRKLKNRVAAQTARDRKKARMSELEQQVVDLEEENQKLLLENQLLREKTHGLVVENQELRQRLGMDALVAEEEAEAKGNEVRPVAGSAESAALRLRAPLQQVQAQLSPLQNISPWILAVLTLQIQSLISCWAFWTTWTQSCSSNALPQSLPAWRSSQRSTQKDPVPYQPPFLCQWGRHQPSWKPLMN

Melanocortin receptor 4 = Melanocortin receptor 4 (Homo sapiens, UniProt P32245); format: functional, cell-based;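 note: Cell-based assay with luminescence read-out, confirmatory dose-response testing for agonist activity of biased ligands at MC4R; human U2OS cells with tagged receptor and beta-arrestin; potency of agonists that increase receptor coupling to beta-arrestin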
Coagulation factor XII = biological target: T2, Coagulation factor XII (Homo sapiens, UniProt P00748); format: functional;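 note: activated factor XIIa alpha cleaving a fluorogenic AMC peptide substrate; inhibitor potency from loss of enzyme activity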
T2 sequence (P00748 whole entry): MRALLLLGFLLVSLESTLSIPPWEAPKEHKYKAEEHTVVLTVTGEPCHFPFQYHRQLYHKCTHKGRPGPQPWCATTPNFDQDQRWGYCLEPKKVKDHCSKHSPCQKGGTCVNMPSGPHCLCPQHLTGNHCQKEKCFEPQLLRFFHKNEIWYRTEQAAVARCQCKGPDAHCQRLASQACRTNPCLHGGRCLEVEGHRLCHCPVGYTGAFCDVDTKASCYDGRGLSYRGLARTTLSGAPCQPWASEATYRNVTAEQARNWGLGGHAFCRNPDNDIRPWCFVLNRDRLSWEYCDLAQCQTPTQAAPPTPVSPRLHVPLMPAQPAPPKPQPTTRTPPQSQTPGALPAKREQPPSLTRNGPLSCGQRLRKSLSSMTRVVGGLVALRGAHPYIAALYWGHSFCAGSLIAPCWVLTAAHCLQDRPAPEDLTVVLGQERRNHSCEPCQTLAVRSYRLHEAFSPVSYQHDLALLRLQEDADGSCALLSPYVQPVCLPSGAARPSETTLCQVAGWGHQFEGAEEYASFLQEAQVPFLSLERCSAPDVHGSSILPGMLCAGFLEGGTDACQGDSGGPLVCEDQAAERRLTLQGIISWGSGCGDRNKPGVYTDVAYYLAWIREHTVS

Leucine aminopeptidase = biological target: T3, Leucine aminopeptidase (Plasmodium falciparum 3D7, UniProt Q8IL11); assay: P. falciparum M17LAP inhibitors, primary screen, biochemical, fluorogenic H-Leu-NHMec substrate, 1536-well (AID 1619); format: functional
T3 sequence (Q8IL11 whole entry): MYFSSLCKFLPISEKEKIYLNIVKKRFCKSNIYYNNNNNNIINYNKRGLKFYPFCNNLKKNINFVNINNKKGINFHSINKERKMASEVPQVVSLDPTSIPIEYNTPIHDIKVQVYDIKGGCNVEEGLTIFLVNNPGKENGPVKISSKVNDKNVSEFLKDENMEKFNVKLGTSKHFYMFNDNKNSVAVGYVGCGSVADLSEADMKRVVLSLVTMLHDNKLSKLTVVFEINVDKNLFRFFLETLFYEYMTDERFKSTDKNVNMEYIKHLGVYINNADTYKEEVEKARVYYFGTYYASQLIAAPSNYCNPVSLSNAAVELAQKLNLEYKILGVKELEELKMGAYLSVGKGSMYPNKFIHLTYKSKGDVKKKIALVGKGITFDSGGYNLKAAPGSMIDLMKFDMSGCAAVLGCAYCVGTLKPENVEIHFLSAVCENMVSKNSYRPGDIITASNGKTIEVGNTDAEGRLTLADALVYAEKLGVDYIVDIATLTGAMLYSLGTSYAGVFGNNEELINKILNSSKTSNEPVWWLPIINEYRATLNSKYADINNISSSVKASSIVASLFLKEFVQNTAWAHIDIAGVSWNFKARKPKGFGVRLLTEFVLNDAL

[1] = biological target: DNA dC->dU-editing enzyme APOBEC-3G (Homo sapiens, UniProt Q9HC16); assay: Dose Response confirmation of small molecule APOBEC3G DNA Deaminase Inhibitors via a fluorescence-based single-stranded DNA deaminase assay. [Related pubchem assays (depositor defined):AID493012, AID493028]; format: functional
H9c2 = assay: cells; format: functional, cell-based; conditions: Rattus norvegicus, H9c2, Myocardium;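 note: confirmatory concentration-response retest of ultra-high-throughput screening hits for modulation of myocardial damage; cell death induced by hydrogen peroxide oxidative stress; compound pretreatment for 60 min then peroxide exposure for 2 h; potency is for protecting the cells against peroxide damage rather than for killing them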
[2] = microbe, parasite or virus in culture; format: functional; conditions: Mycobacterium tuberculosis
[3] = biological target: T4, Short transient receptor potential channel 4 (Mus musculus, UniProt Q9QUQ5); assay: calcium entry via TRPC4 opening agents – cell-based, HEK293 TRPC4/mu-opioid, Fluo-4 calcium, dose response (AID 434937); format: functional
T4 sequence (Q9QUQ5 whole entry): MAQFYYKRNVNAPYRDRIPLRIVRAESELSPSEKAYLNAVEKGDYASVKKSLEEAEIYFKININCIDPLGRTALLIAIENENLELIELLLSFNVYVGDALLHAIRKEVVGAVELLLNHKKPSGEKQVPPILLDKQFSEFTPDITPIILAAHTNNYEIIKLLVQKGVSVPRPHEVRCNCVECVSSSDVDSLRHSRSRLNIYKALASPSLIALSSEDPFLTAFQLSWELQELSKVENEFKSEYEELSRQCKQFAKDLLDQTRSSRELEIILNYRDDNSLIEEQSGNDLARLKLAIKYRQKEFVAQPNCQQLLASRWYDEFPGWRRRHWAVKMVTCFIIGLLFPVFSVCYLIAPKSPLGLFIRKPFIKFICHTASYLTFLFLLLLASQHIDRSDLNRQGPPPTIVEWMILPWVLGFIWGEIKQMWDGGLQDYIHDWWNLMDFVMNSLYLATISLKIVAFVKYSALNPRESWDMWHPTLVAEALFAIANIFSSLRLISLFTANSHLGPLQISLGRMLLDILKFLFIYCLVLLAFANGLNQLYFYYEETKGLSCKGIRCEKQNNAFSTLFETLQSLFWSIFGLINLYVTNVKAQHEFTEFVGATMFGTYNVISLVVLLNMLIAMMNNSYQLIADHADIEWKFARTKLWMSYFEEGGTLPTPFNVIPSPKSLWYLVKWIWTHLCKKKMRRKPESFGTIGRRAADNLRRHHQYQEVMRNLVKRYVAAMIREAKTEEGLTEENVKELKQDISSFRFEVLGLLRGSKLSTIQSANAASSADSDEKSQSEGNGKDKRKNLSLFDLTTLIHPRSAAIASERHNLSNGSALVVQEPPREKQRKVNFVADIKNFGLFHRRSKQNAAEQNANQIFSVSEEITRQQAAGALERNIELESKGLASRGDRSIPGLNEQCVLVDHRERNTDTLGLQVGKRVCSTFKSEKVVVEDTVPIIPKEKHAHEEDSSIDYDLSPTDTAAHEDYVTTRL

Cytochrome P450 2C19 = Cytochrome P450 2C19 (Homo sapiens, UniProt P33261); assay: Cytochrome panel assay with activity outcomes. Panel member name: p450-cyp2c19 Compounds with AC50 equal or less than 10 uM are considered active; format: functional; conditions: read-out: AC50
[4] = biological target: T5, Replicative DNA helicase DnaB (Mycobacterium tuberculosis, UniProt P9WMR3); assay: DnaB intein splicing inhibitors, dose response, biochemical, cell-free fluorescence (AID 449749); format: functional
T5 sequence (P9WMR3 whole entry): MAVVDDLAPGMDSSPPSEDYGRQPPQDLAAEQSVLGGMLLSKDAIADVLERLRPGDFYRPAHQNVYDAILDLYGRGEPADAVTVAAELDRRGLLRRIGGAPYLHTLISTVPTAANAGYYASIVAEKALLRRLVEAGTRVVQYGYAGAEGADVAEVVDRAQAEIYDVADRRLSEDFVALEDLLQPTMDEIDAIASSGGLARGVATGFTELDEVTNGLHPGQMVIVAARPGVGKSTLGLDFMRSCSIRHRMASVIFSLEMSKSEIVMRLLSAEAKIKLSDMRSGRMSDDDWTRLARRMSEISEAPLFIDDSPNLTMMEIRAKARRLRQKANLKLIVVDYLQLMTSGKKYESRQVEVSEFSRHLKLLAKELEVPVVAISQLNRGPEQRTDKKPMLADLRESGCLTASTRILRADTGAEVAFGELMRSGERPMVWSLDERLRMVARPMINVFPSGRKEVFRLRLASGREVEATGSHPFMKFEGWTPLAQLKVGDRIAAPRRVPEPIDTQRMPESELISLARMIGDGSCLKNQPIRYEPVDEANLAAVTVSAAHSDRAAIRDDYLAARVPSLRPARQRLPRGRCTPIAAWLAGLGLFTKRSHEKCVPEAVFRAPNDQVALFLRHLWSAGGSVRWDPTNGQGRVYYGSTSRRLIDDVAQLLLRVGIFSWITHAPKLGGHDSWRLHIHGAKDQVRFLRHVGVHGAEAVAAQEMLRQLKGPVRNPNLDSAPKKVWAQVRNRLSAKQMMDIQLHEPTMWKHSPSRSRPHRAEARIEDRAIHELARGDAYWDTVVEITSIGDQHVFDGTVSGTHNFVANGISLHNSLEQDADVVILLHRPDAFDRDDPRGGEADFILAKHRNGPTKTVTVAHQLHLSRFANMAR

Protein RecA = biological target: T6, Protein RecA (Mycobacterium tuberculosis, UniProt P9WHJ3); assay: Fluorescence Cell-Free Homogeneous Dose Retest to Identify Inhibitors of RecA-Intein Splicing Activity. [Related pubchem assays (depositor defined):AID2097, AID2223, AID489010, AID492950]; format: functional
T6 sequence (P9WHJ3 whole entry): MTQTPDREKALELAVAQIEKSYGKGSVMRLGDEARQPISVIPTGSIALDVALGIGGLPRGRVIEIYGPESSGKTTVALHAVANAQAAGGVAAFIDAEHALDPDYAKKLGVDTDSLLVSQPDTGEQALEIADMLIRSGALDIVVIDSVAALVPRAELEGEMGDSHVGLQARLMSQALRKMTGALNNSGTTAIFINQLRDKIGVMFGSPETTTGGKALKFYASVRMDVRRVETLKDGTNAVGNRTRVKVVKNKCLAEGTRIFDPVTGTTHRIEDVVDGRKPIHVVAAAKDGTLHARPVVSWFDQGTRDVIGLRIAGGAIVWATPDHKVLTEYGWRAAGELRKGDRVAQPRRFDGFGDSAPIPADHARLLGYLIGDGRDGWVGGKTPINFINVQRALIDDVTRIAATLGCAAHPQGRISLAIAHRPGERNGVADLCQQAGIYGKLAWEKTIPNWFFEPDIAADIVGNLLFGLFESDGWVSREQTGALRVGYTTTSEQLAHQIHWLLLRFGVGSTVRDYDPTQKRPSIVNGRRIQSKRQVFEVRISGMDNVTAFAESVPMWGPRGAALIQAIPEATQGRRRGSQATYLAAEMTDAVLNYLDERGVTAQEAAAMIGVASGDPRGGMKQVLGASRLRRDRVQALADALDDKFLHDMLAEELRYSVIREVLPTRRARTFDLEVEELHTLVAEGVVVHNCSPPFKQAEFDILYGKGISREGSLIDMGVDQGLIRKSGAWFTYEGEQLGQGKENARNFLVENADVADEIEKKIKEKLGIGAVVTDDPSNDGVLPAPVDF

Cytochrome P450 1A2 = biological target: T7, Cytochrome P450 1A2 (Homo sapiens, UniProt P05177);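 note: PubChem cytochrome P450 panel assay, CYP1A2 panel member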
T7 sequence (P05177 whole entry): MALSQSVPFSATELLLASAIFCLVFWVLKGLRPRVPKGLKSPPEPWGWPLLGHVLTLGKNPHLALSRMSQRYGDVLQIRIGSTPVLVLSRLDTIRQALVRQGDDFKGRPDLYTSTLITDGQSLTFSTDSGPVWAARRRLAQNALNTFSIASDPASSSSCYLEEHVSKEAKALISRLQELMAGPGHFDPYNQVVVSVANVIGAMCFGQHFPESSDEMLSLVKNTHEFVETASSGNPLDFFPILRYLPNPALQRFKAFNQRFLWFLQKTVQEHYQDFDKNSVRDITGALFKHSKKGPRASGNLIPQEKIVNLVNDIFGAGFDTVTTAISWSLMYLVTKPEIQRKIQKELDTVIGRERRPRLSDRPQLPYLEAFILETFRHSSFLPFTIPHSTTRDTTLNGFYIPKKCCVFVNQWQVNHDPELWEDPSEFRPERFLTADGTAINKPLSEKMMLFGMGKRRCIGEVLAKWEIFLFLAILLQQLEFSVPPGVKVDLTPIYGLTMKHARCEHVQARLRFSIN

**Q.** For `Cc1ccc(S(=O)(=O)NCCCCCC(=O)Nc2ccccc2C)cc1`, which EC50 (Troponin, cardiac muscle) is on record?
**A.** The EC50 was > 71.5 µM (inactive).

**Q.** Which “Absolute IC50 (XBP1)” value (X-box-binding protein 1) does the source give for `Cc1ccc2nc(Nc3ccc4[nH]c(O)nc4c3)c(-n3nc(C)cc3C)nc2c1` here?
**A.** Its value is 10 µM.

**Q.** And the EC50 (Melanocortin receptor 4)?
**A.** The EC50 was > 89.2 µM (inactive).

**Q.** Which IC50 (Coagulation factor XII) does the source give for `Cc1nc2ccccc2n1C1CCN(Cc2nnnn2CCc2ccccc2)CC1` here?
**A.** Its IC50 is > 50 µM (inactive).

**Q.** With `CCOc1ccccc1N1C(=O)CC(Sc2n[nH]c(-c3ccccc3)n2)C1=O` (configuration not stated) as the compound, how does the IC50 (Leucine aminopeptidase) read?
**A.** The IC50 was 8.97 µM (active).

**Q.** And the IC50 [1]?
**A.** Its IC50 is 9.92 µM (active).

**Q.** For `COc1cccc(CC(NC(C)=O)C(=O)NC2CCN(c3nc(C)cc(C)c3C#N)CC2)c1OC` (configuration not stated), which EC50 (Troponin, cardiac muscle) is on record?
**A.** The EC50 was > 71.5 µM (inactive).

**Q.** With `COC(=O)C(C)Sc1nnc(Cc2cc(O)nc(O)n2)n1-c1ccc(Cl)cc1` (configuration not stated) as the compound, how does the IC50 (Coagulation factor XII) read?
**A.** The IC50 was > 50 µM (inactive).

**Q.** What does the source list for `COc1ccc(/C=N/NC(=O)c2cc(OC)c(OC)c(OC)c2)cc1CN1CCc2cc(OC)c(OC)cc2C1C` (configuration not stated)?
**A.** EC50 (Troponin, cardiac muscle): > 71.5 µM (inactive); IC50 (H9c2): 19.5 µM (active)

**Q.** What does the source list for `O=C1NCN(c2ccccc2)C12CCN(CCCC(c1ccc(F)cc1)c1ccc(F)cc1)CC2`?
**A.** CC50 [2]: 32.9 µM (active); EC50 [3]: 6.68 µM (active); Absolute IC50 (XBP1) (X-box-binding protein 1): 10 µM; AC50 (Cytochrome P450 2C19): 7.94 µM (inconclusive) and 15.8 µM (inconclusive); AC50 [4]: 9.69 µM (active); EC50 (Protein RecA): 20.2 µM (active); AC50 (Cytochrome P450 1A2): 12.6 µM (inconclusive)
